In ChEMBL document CHEMBL1201862, “PubChem BioAssay data set” (2004):
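Tested at 5 concentrations; 48 h exposure; 96-well plates; endpoints linearly interpolated, else capped at highest concentration. GI50 = concentration required for 50% inhibition of growth.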 Calls of active or inactive are those of the source. Rule as the data show it: active = GI50 up to about 1.1 µM and inactive = higher.

Key:
Assay in all cases: growth of human tumour cells (NCI), 48 h
Malme-3M = system: Malme-3M
MOLT-4 = system: MOLT-4
SK-MEL-5 = system: SK-MEL-5
K562 = system: K562
OVCAR-4 = system: OVCAR-4
COLO 205 = system: COLO 205
SF-539 = system: SF-539
786-0 = system: 786-0
HCC 2998 = system: HCC 2998
PC-3 = system: PC-3
U-251 = system: U-251
IGROV-1 = system: IGROV-1
OVCAR-8 = system: OVCAR-8
MDA-MB-435 = system: MDA-MB-435
MCF7 = system: MCF7
CCRF-CEM = system: CCRF-CEM
HCT-15 = system: HCT-15
SK-OV-3 = system: SK-OV-3
RPMI-8226 = system: RPMI-8226

Structure (SMILES)	GI50 (Malme-3M)	GI50 (MOLT-4)	GI50 (SK-MEL-5)	GI50 (K562)	GI50 (OVCAR-4)	GI50 (COLO 205)	GI50 (SF-539)	GI50 (786-0)	GI50 (HCC 2998)	GI50 (PC-3)	GI50 (U-251)	GI50 (IGROV-1)	GI50 (OVCAR-8)	GI50 (MDA-MB-435)	GI50 (MCF7)	GI50 (CCRF-CEM)	GI50 (HCT-15) [µM]	GI50 (SK-OV-3)	GI50 (RPMI-8226)
CNC(=O)OC(C)CN1c2ccccc2Sc2ccccc21 (stereo unspecified)	> 100 µM (inactive)	19.1 µM (inactive)	59.8 µM (inactive)	63.7 µM (inactive)	74.5 µM (inactive)	41.2 µM (inactive)	64.3 µM (inactive)	64.6 µM (inactive)	> 100 µM (inactive)	8.63 µM (inactive)	> 100 µM (inactive)	59.3 µM (inactive)	> 100 µM (inactive)	80.2 µM (inactive)	> 100 µM (inactive)	> 100 µM (inactive)	32.1	> 100 µM (inactive)	
CCOC(=O)c1ccc(/N=C/C=C(\Nc2ccc(C(=O)OCC)cc2)c2ccc3ccccc3c2)cc1	20.5 µM (inactive)	3.97 µM (inactive)	18.3 µM (inactive)	13.3 µM (inactive)	26.4 µM (inactive)	16.2 µM (inactive)	20.2 µM (inactive)	23.3 µM (inactive)		31.3 µM (inactive)	32.8 µM (inactive)	36.2 µM (inactive)	35.4 µM (inactive)	16.2 µM (inactive)	23.4 µM (inactive)	17.9 µM (inactive)	20.7	30.2 µM (inactive)	18.7 µM (inactive)
NCCN1CC2CCC(CC2)C1	> 10 µM (inactive)	> 10 µM (inactive)	> 10 µM (inactive)	> 10 µM (inactive)	> 10 µM (inactive)	> 10 µM (inactive)	> 10 µM (inactive)	> 10 µM (inactive)	> 10 µM (inactive)	> 10 µM (inactive)	> 10 µM (inactive)	> 10 µM (inactive)	> 10 µM (inactive)	> 10 µM (inactive)	> 10 µM (inactive)	> 10 µM (inactive)	> 10	> 10 µM (inactive)	> 10 µM (inactive)
COc1ccc(CNc2nc(NCc3ccc(OC)cc3)nc(N3CCOCC3)n2)cc1	1.03 µM (active)	2.88 µM (inactive)	5.41 µM (inactive)	4.55 µM (inactive)	15.5 µM (inactive)	3.91 µM (inactive)	4.27 µM (inactive)	5.25 µM (inactive)		4.05 µM (inactive)	4.43 µM (inactive)	7.91 µM (inactive)	6.81 µM (inactive)	2.02 µM (inactive)	4.15 µM (inactive)		2.29	8.83 µM (inactive)	1.69 µM (inactive)
O=C(NCCN1CCOCC1)c1ccc(I)cc1		> 100 µM (inactive)	> 100 µM (inactive)	> 100 µM (inactive)	> 100 µM (inactive)		> 100 µM (inactive)	> 100 µM (inactive)	> 100 µM (inactive)	> 100 µM (inactive)	> 100 µM (inactive)	> 100 µM (inactive)	> 100 µM (inactive)		> 100 µM (inactive)	> 100 µM (inactive)	> 100	> 100 µM (inactive)	> 100 µM (inactive)
O=C1CCc2c3c(c4c([nH]c5ccccc54)c2CC1)C(=O)NC3=O	3.48 µM (inactive)	0.774 µM (active)	1.91 µM (inactive)	1.19 µM (inactive)	2.08 µM (inactive)	0.63 µM (active)	5.36 µM (inactive)	11.7 µM (inactive)	27.9 µM (inactive)	2.05 µM (inactive)	4.55 µM (inactive)	0.893 µM (active)	6.87 µM (inactive)	1.31 µM (inactive)	2.97 µM (inactive)	2 µM (inactive)	2.7		3.38 µM (inactive)
COc1ccc(NC(=O)C(=O)C2CNC(=O)NC2=O)c(OC)c1 (stereo unspecified)	> 100 µM (inactive)	> 100 µM (inactive)	> 100 µM (inactive)	> 100 µM (inactive)	> 100 µM (inactive)	> 100 µM (inactive)	> 100 µM (inactive)	> 100 µM (inactive)	> 100 µM (inactive)		> 100 µM (inactive)	> 100 µM (inactive)	> 100 µM (inactive)			> 100 µM (inactive)	> 100	> 100 µM (inactive)	> 100 µM (inactive)
Cc1c(CN)c(C)c(CN)c(C)c1CN	> 100 µM (inactive)	> 100 µM (inactive)	> 100 µM (inactive)	> 100 µM (inactive)	> 100 µM (inactive)	> 100 µM (inactive)	> 100 µM (inactive)	> 100 µM (inactive)	> 100 µM (inactive)	> 100 µM (inactive)	> 100 µM (inactive)	> 100 µM (inactive)	> 100 µM (inactive)	> 100 µM (inactive)	> 100 µM (inactive)	> 100 µM (inactive)	> 100		> 100 µM (inactive)
CN(C)c1ccc(/C=N\NC(=O)CSCC(=O)N/N=C/c2ccc(N(C)C)cc2)cc1	> 100 µM (inactive)	36.6 µM (inactive)	30 µM (inactive)	52.6 µM (inactive)	43.9 µM (inactive)	48 µM (inactive)	37.3 µM (inactive)	55.1 µM (inactive)		45.2 µM (inactive)	25.9 µM (inactive)	19.4 µM (inactive)	53.7 µM (inactive)	76.6 µM (inactive)	40.5 µM (inactive)	60.5 µM (inactive)	16.4	> 100 µM (inactive)	33.3 µM (inactive)
COC(=O)C1(O)CC(=O)CCC1c1ccc(OC)cc1 (stereo unspecified)	> 100 µM (inactive)	> 100 µM (inactive)	> 100 µM (inactive)	> 100 µM (inactive)	> 100 µM (inactive)	> 100 µM (inactive)	> 100 µM (inactive)	> 100 µM (inactive)	> 100 µM (inactive)		> 100 µM (inactive)	> 100 µM (inactive)	> 100 µM (inactive)			> 100 µM (inactive)	> 100	> 100 µM (inactive)	> 100 µM (inactive)
COC(=O)C(=O)C(C(=O)C(=O)Nc1ccc(Cl)cc1Cl)c1nc2ccc(Cl)cc2nc1O (stereo unspecified)		82.8 µM (inactive)	> 100 µM (inactive)		> 100 µM (inactive)	> 100 µM (inactive)	> 100 µM (inactive)	> 100 µM (inactive)	> 100 µM (inactive)	> 100 µM (inactive)	> 100 µM (inactive)	58.7 µM (inactive)	> 100 µM (inactive)	> 100 µM (inactive)	> 100 µM (inactive)	69.7 µM (inactive)	> 100	> 100 µM (inactive)	
COc1cc2c(cc1OCCCOc1cc3c(cc1OC)C(=O)N1CCC[C@H]1C(=O)N3)N=C[C@@H]1CCCN1C2=O	10.9 µM (inactive)	0.206 µM (active)	12.5 µM (inactive)	3.77 µM (inactive)	18.5 µM (inactive)	3.61 µM (inactive)		29 µM (inactive)	14.3 µM (inactive)	13.6 µM (inactive)	4.65 µM (inactive)	14.6 µM (inactive)	23.4 µM (inactive)	15.8 µM (inactive)	4.52 µM (inactive)		71.3		6.46 µM (inactive)
